Here are results for 12 compounds from patent US9346776B2, “Fused heterocyclic compound” (Takeda Pharmaceutical Company Limited, priority 2014, dated 2016).

Structures are written as SMILES.

For assay [1], the target named is T1, Human recombinant enteropeptidase (Homo sapiens, UniProt P98073).
T1 construct: purchased ITSI-Biosciences, LLC #REN-260
Description: Human enteropeptidase inhibitory activity. In kind it is biochemical. The settings on record: 3.3 uM compound; fluorescence 2 hours after start of reaction; read-out: Inhibition rate at 3.3 uM (%). The method, then:
Test Example 1 Human enteropeptidase inhibitory activity Human recombinant enteropeptidase (#REN-260, ITSI-Biosciences, LLC) was diluted with an assay buffer (50 mM Tricine (pH 8.0), 0.01 (w/v) % Tween 20, 10 mM CaCl2) to prepare a 24 mU/mL enzyme solution. Subsequently, 5FAM-Abu-Gly-Asp-Asp-Asp-Lys-Ile-Val-Gly-Gly-Lys(CPQ2)-Lys-Lys-NH2 (purity: 97.2%, CPC Scientific, Inc.) produced according to a synthesis method known per se was diluted with an assay buffer to prepare a 2.1 uM (“u” represents “micro”) substrate solution. Each test compound was dissolved in DMSO to prepare a 1 mM solution, which was then diluted 100-fold with an assay buffer to prepare a compound solution. The compound solution (5 uL/well) and the substrate solution (5 uL/well) were added to a 384-well black plate (#784076, Greiner Bio-One) and mixed. Then, the enzyme solution (5 uL/well) was added to the plate and mixed to start reaction. The fluorescence intensity was measured at an excitation wavelength of 485 nm and a fluorescence wavelength of 535 nm using a fluorescence plate reader EnVision (PerkinElmer Inc.). Also, the same reaction as above was performed except that the test compound was not added (test compound non-supplemented group). In addition, the same reaction as above was performed except that neither the test compound nor the enzyme was added (control group). The inhibition rate was calculated from the fluorescence intensity 2 hours after the start of the reaction according to the following equation: Inhibition rate (%)=(1−(Fluorescence intensity of the test compound supplemented group−Fluorescence intensity of the control group)/(Fluorescence intensity of the test compound non-supplemented group−Fluorescence intensity of the control group))×100

The subject of assay [2] is high fat diet-fed (HFD-fed) mouse. Briefly: Test on elevation of protein concentration in feces using HFD-fed mouse. In kind it is in vivo. To be noted: 10 mg/kg oral, feces recovered at day 1, mean ± SD, 5 mice. The protocol:
Test Example 2 Test on elevation of protein concentration in feces using HFD-fed mouse A 0.5% methylcellulose suspension (test compound administered group, 5 mice per group) containing each test compound (10 mg/kg) or a 0.5% methylcellulose suspension (test compound non-administered group (vehicle), 5 mice per group) was orally administered to each high fat diet-fed (HFD-fed) mouse (D12079B diet, male, 18 weeks old), and the whole feces were recovered at day 1 of administration. The dry feces were dissolved in a 0.5 N aqueous sodium hydroxide solution. After centrifugation at 12,000 rpm, a protein concentration was quantified (Lowry method) using the supernatant to calculate a protein concentration (mg/g feces) in 1 g of feces. The mean and standard deviation of each group are shown below.

Assay [3] concerns diet-induced obesity (DIO) mouse. Briefly: Test on antiobesity action using DIO mouse. To be noted: mean ± SD; for Body weight(g) At start of administration: baseline. Type of assay: in vivo. The method, then:
Test Example 3 Test on antiobesity action using DIO mouse A 0.5% methylcellulose suspension (test compound administered group, 5 or 6 mice per group) containing each test compound (20 or 60 mg/kg) or a 0.5% methylcellulose suspension (test compound non-administered group (vehicle), 6 mice per group) was orally administered to each diet-induced obesity (DIO) mouse (D12079B diet, male, 46 weeks old) once a day for 4 weeks. The means of body weights and standard deviations at the start of administration and after 4-week continuous administration are shown below.

The subject of assay [4] is Male ob/ob mice. Briefly: Hypoglycemic action on diabetes mellitus animal model (2-week continuous administration). The settings on record: feed containing 0.03% compound for 2 weeks, mean ± SD. In kind it is in vivo, mouse. The source says:
Test Example 4 Hypoglycemic action on diabetes mellitus animal model (2-week continuous administration) Male ob/ob mice (6 weeks old) were used to prepare two groups each involving 5 individuals. One of the groups was fed as a control with feed free from a compound for 2 weeks, while the other group to receive compound treatment was fed with feed containing a compound at a concentration of 0.03% for 2 weeks. After 2 weeks, blood was collected from the tail vein of each mouse, and a diabetes mellitus-ameliorating action brought about by the compound treatment was evaluated. Blood glucose levels were measured using Hitachi automatic analyzer model 7180 (Hitachi, Ltd.), and glycated hemoglobin levels were measured using Tosoh automatic glycohemoglobin analyzer HLC-723G8 (Tosoh Corp.). The blood glucose and glycated hemoglobin levels of each group after the 2-week administration are indicated by mean±standard deviation in Table 6.

The mark [5] stands for this setting: 20 mg/kg oral once a day for 4 weeks.
Where [6] appears, read: 60 mg/kg oral once a day for 4 weeks.

By inhibition is commonly meant the relative decrease from the control value, in per cent.

T1 sequence (P98073 whole entry): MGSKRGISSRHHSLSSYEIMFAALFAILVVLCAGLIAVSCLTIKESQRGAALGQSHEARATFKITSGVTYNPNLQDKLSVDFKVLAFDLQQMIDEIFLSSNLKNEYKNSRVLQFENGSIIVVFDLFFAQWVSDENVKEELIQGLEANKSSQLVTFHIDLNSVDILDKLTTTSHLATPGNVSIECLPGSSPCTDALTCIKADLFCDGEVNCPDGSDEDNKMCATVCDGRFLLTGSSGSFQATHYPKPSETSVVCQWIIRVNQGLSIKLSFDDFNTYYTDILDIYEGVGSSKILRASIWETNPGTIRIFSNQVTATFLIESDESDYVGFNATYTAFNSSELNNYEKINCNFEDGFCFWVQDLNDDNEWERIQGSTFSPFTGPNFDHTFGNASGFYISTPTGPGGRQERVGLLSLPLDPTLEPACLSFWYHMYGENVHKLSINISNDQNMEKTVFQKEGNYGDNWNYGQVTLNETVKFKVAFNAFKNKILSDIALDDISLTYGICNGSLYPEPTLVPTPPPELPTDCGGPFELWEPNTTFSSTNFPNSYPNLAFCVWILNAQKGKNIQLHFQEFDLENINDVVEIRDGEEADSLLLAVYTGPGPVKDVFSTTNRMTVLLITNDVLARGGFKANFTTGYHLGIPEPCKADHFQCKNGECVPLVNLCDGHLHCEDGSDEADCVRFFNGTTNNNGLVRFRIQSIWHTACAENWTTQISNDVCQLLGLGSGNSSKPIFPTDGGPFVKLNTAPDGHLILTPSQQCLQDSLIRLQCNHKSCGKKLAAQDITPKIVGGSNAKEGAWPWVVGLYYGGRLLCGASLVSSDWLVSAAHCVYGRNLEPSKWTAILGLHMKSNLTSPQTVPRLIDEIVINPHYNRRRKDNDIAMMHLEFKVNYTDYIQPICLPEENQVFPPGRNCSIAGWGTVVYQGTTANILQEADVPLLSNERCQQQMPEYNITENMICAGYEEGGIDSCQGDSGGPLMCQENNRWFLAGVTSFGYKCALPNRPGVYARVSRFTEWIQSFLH

As for `N=C(N)Nc1ccc(C(=O)Oc2ccc3c(c2)OC[C@@H]3CC(=O)N(CCC(=O)O)CCC(=O)O)cc1` [Example 9, 3,3′-((((3R)-6-((4-carbamimidamidobenzoyl)oxy)-2,3-dihydro-1-benzofuran-3-yl)acetyl)imino)dipropanic acid], in assay [1], the inhibition at 3.3 µM was 100%.

`N=C(N)Nc1ccc(C(=O)Oc2ccc3c(c2)OC[C@@H]3CC(=O)N[C@@H](CC(=O)O)C(=O)O)cc1` [Example 2, N-(((3R)-6-((4-Carbamimidamidobenzoyl)oxy)-2,3-dihydro-1-benzofuran-3-yl)acetyl)-L-aspartic acid]: in assay [2], the “Protein concentration in feces (mg/g feces)” value is given as 149.8 ± 24.4 mg/g feces. For the same compound, in assay [1], the inhibition at 3.3 µM is 101%. Further, the “Body weight(g) After 4-week continous administration” value is given as 46.0 ± 2.8 g in assay [3] (setting [5]) and 44.4 ± 4.5 g in assay [3] (setting [6]). In addition, the “Body weight(g) At start of administration” value amounted to 49.6 ± 2.6 g in assay [3] (20 mg/kg oral once a day) and 49.8 ± 2.8 g in assay [3] (60 mg/kg oral once a day).

Consider `N=C(N)Nc1ccc(C(=O)Oc2ccc3c(c2)OC[C@H]3CC(=O)N[C@H](CC(=O)O)C(=O)O)cc1` [Example 4, N-(((3S)-6-((4-carbamimidamidobenzoyl)oxy)-2,3-dihydro-1-benzofuran-3-yl)acetyl)-D-aspartic acid], for which the inhibition at 3.3 µM in assay [1] turned out to be 100%.

As to `N=C(N)Nc1ccc(C(=O)Oc2ccc3c(c2)OC[C@@H]3CC(=O)N[C@@H](CCC(=O)O)C(=O)O)cc1` [Example 6, N-(((3R)-6-((4-carbamimidamidobenzoyl)oxy)-2,3-dihydro-1-benzofuran-3-yl)acetyl)-L-glutamic acid], in assay [1], the inhibition at 3.3 µM was determined as 101%.

As for `Cc1c(OC(=O)c2ccc(NC(=N)N)cc2)ccc2c1OCC2CC(=O)N[C@@H](CC(=O)O)C(=O)O` (stereo partly drawn) [Example 11, N-((6-((4-carbamimidamidobenzoyl)oxy)-7-methyl-2,3-dihydro-1-benzofuran-3-yl)acetyl)-L-aspartic acid], the inhibition at 3.3 µM in assay [1] is 98%.

Take `N=C(N)Nc1ccc(C(=O)Oc2ccc3c(c2)OC[C@@H]3CC(=O)N[C@H](CC(=O)O)C(=O)O)cc1` [Example 5, N-(((3R)-6-((4-carbamimidamidobenzoyl)oxy)-2,3-dihydro-1-benzofuran-3-yl)acetyl)-D-aspartic acid]: the inhibition at 3.3 µM in assay [1] amounted to 101%.

`N=C(N)Nc1ccc(C(=O)Oc2ccc3c(c2)OC[C@H]3CC(=O)N[C@@H](CC(=O)O)C(=O)O)cc1` [Example 1, N-(((3S)-6-((4-Carbamimidamidobenzoyl)oxy)-2,3-dihydro-1-benzofuran-3-yl)acetyl)-L-aspartic acid]: the “Protein concentration in feces (mg/g feces)” value in assay [2] was found to be 177.6 ± 35.2 mg/g feces. Also, the inhibition at 3.3 µM in assay [1] worked out at 101%. The “Body weight(g) After 4-week continous administration” value in assay [3] (setting [5]) amounted to 43.8 ± 1.7 g; in assay [3] (setting [6]), 41.7 ± 2.8 g. Further, the “Body weight(g) At start of administration” value in assay [3] (20 mg/kg oral once a day) worked out at 48.3 ± 2.0 g; in assay [3] (60 mg/kg oral once a day), 49.5 ± 2.2 g.

Consider `N=C(N)Nc1ccc(C(=O)Oc2ccc3c(c2)OC[C@H]3CC(=O)N[C@@H](CCC(=O)O)C(=O)O)cc1` [Example 7], for which, in assay [1], the inhibition at 3.3 µM came out at 101%.

Take `Cc1cc(OC(=O)c2ccc(NC(=N)N)cc2)cc2c1C(CC(=O)N[C@@H](CC(=O)O)C(=O)O)CO2` (stereo partly drawn) [Example 3, N-((6-((4-Carbamimidamidobenzoyl)oxy)-4-methyl-2,3-dihydro-1-benzofuran-3-yl)acetyl)-L-aspartic acid]: the inhibition at 3.3 µM in assay [1] stood at 100%.

With `N=C(N)Nc1ccc(C(=O)Oc2cc(F)c3c(c2)OCC3CC(=O)N[C@@H](CC(=O)O)C(=O)O)cc1` (stereo partly drawn) [Example 10, N-((6-((4-Carbamimidamidobenzoyl)oxy)-4-fluoro-2,3-dihydro-1-benzofuran-3-yl)acetyl)-L-aspartic acid], in assay [1], the inhibition at 3.3 µM was determined as 100%.

For `N=C(N)Nc1ccc(C(=O)Oc2ccc3c(c2)OC[C@H]3CC(=O)N[C@@H](CC(=O)O)C(=O)O)cc1` [Example 12, N-(((3S)-6-((4-Carbamimidamidobenzoyl)oxy)-2,3-dihydro-1-benzofuran-3-yl)acetyl)-L-aspartic acid hydrate], in assay [4], the “Blood glucose level” value amounted to 144.2 ± 19.5 mg/dL and the “Glycated hemoglobin level (%)” value is listed as 3.5 ± 0.1%.

Take `N=C(N)Nc1ccc(C(=O)Oc2ccc3c(c2)OC[C@@H]3CC(=O)N(CC(=O)O)CC(=O)O)cc1` [Example 8, 2,2′-((((3R)-6-((4-carbamimidamidobenzoyl)oxy)-2,3-dihydro-1-benzofuran-3-yl)acetyl)imino)diacetic acid]: the inhibition at 3.3 µM in assay [1] came out at 100%.
